The record followed here is patent US10189842B2 (Agency for Science, Technology and Research, priority 2013, dated 2019).

In this assay the test system is HEK293-STF3A cells. As to the kind of experiment: STF3A assay (luciferase reporter). It is filed as cell-based, Human. The following applies: Homo sapiens, 24 h, 1 day of treatment. From the text:
HEK293-STF cell line was modified from Human embryonic kidney cell line HEK293 transfected with the STF reporter. HEK293-STF3A cell line was further modified from HEK293-STF cell line to express Wnt3A. This cell line was used to identify compounds that regulate either early or late signaling components of the Wnt pathway. These two cell lines were obtained from David Virshup's laboratory, Duke-NUS. L-Wnt3A (ATCC, #CRL-2647) cell line was used for providing Wnt3A conditioned media. The three cell lines were grown in DMEM with 10% FBS incubated in 37° C. with 5% CO2.
2×10^4 HEK293-STF3A cells in 75 μl culture media were seeded in each well of white 96 well plates (Greiner #655098) and incubated overnight at 37° C. 25 μl serially diluted compound was added to the cells to give final concentration of 50 μM to 1.5 nM. After 1 day of treatment, 100 μl of Steady-Glo Luciferase Assay reagent (#E2520, Promega) was added to each well and incubated for 10 minutes at room temperature. Luminescence was measured using Tecan Safire2 plate reader.
Background: In a reporter assay the amount or activity of a reporter protein is the signal.

Usually IC50 stands for the concentration needed to halve the response being measured. Lower therefore signals greater potency in that assay. For `Cc1cc2n(n1)CCCN2C(=O)CCC(=O)Nc1ccc(-c2cncc(F)c2)nc1` [Compound 109, N-(5′-fluoro-[2,3′-bipyridin]-5-yl)-4-(2-methyl-6,7-dihydropyrazolo[1,5-a]pyrimidin-4(5H)-yl)-4-oxobutanamide], the IC50 is < 100 nM.

`Cc1cncc(-c2ccc(NC(=O)CCC(=O)N3CC(C)Cn4nc(C)cc43)nc2)n1` (stereo not shown) [Compound 157, 4-(2,6-dimethyl-6,7-dihydropyrazolo[1,5-a]pyrimidin-4(5H)-yl)-N-(5-(6-methylpyrazin-2-yl)pyridin-2-yl)-4-oxobutanamide]: the IC50 was < 100 nM.

In the case of `Cc1cccc(-c2ccc(NC(=O)CCC(=O)N3CCCn4nc(C)cc43)cn2)c1` [Compound 85, 4-(2-methyl-6,7-dihydropyrazolo[1,5-a]pyrimidin-4(5H)-yl)-4-oxo-N-(6-(m-tolyl)pyridin-3-yl)butanamide], the IC50 is < 100 nM.

As to `Cc1cc2n(n1)CCCN2C(=O)CCC(=O)Nc1ccc(-c2ccc(F)cc2)nn1` [Compound 101, N-(6-(4-fluorophenyl)pyridazin-3-yl)-4-(2-methyl-6,7-dihydropyrazolo[1,5-a]pyrimidin-4(5H)-yl)-4-oxobutanamide], the IC50 was < 100 nM.

For the compound `Cc1cc2n(n1)CCCN2C(=O)CCC(=O)Nc1ccc(-c2cncc(Cl)c2)nn1` [Compound 102, N-(6-(5-chloropyridin-3-yl)pyridazin-3-yl)-4-(2-methyl-6,7-dihydropyrazolo[1,5-a]pyrimidin-4(5H)-yl)-4-oxobutanamide], the IC50 was < 100 nM.

Take `Cc1ccc(-c2ccc(NC(=O)CCC(=O)N3CCCn4nc(C)cc43)nc2)cn1` [Compound 121, N-(6′-methyl-3,3′-bipyridin-6-yl)-4-(2-methyl-6,7-dihydropyrazolo[1,5-a]pyrimidin-4(5H)-yl)-4-oxobutanamide]: the IC50 was < 100 nM.

Take `Cc1cc2n(n1)CCCN2C(=O)CCC(=O)Nc1cnc(-c2ccccc2)c(F)c1` [Compound 156, N-(5-fluoro-6-phenylpyridin-3-yl)-4-(2-methyl-6,7-dihydropyrazolo[1,5-a]pyrimidin-4(5H)-yl)-4-oxobutanamide]: the IC50 was < 100 nM.

For the compound `Cc1cc2n(n1)CCCN2C(=O)CCC(=O)Nc1ccc(C2CCN(C)CC2)cc1` [Compound 82, 4-(2-methyl-6,7-dihydropyrazolo[1,5-a]pyrimidin-4(5H)-yl)-N-(4-(1-methylpiperidin-4-yl)phenyl)-4-oxobutanamide], the IC50 was > 10000 nM.

Turning to `Cc1cc2n(n1)CCCN2C(=O)CCC(=O)Nc1ccc(-c2cccc(N(C)C)c2)cc1` [Compound 72, N-(3′-(dimethylamino)-[1,1′-biphenyl]-4-yl)-4-(2-methyl-6,7-dihydropyrazolo[1,5-a]pyrimidin-4(5H)-yl)-4-oxobutanamide], the IC50 was > 10000 nM.

For the compound `Cc1cc2n(n1)CCCN2C(=O)CCC(=O)Nc1ccc(-c2cncc(N)c2)nc1` [Compound 112, N-(5′-amino-2,3′-bipyridin-5-yl)-4-(2-methyl-6,7-dihydropyrazolo[1,5-a]pyrimidin-4(5H)-yl)-4-oxobutanamide], the IC50 is < 1000 nM.

As to `Cc1cc2n(n1)CCCN2C(=O)CCC(=O)Nc1cc(C)c(-c2ccccc2)cn1` [Compound 92, N-(4-methyl-5-phenylpyridin-2-yl)-4-(2-methyl-6,7-dihydropyrazolo[1,5-a]pyrimidin-4(5H)-yl)-4-oxobutanamide], the IC50 is < 1000 nM.

Take `COc1cc(-c2ccccc2)ccc1NC(=O)CCC(=O)N1CCCn2nc(C)cc21` [Compound 55, N-(3-methoxy-[1,1′-biphenyl]-4-yl)-4-(2-methyl-6,7-dihydropyrazolo[1,5-a]pyrimidin-4(5H)-yl)-4-oxobutanamide]: the IC50 is > 10000 nM.

Take `Cc1cc2n(n1)CCCN2C(=O)CCC(=O)Nc1ccc(-n2ccnc2)cc1` [Compound 27, N-(4-(1H-imidazol-1-yl)phenyl)-4-(2-methyl-6,7-dihydropyrazolo[1,5-a]pyrimidin-4(5H)-yl)-4-oxobutanamide]: the IC50 is < 1000 nM.
